Data from patent publication US20250049819A1, “METHODS FOR TREATING AND PREVENTING C. DIFFICILE INFECTION” (Paratek Pharmaceuticals, Inc., priority 2016, published 2025).
Converted amounts (≈) assume the structure as drawn. “Also recorded” adds a separate entry of the source. Read-outs that look alike come from different tables or passages of the source.

Experiments:
[1] = tested on: C. difficile strains (N = 27); test: MIC by broth microdilution against C. difficile clinical isolates; assay type: cell-based; set-up: Broth Microdilution Range (Minimum Inhibitory Concentration): unit not given here; conditions: 27 isolates; for MIC50 / MIC90: Clostridioides difficile
Experimental: (§1) The activity of omadacycline was tested in vitro against 27 clinical isolates of C. difficile. […] The experiments were carried out using broth and agar microdilution methods according to Clinical and Laboratory Standards Institute (CLSI) guidelines. […] Each test was run in duplicate.

[2] = tested on: C. difficile strain ATCC 43596; test: MIC90 against the infection model strain; assay type: cell-based
[3] = tested on: C. difficile strains (N = 27); test: MIC by agar dilution against C. difficile clinical isolates; assay type: cell-based; conditions: 27 isolates
Experimental: as §1

[4] = tested on: gut microflora populations; test: In vitro human gut model, gut microflora populations (Example 4); assay type: cell-based
Experimental: (§2) The gut model was inoculated with pooled fecal slurry (5 volunteers ≥60 years of age with no history of antibiotic therapy in the previous 3 months) and left for 2 weeks to allow the bacterial populations to achieve steady state. A single inoculum (˜10^7 cfu/mL) of C. difficile spores (PCR ribotype 027 strain 210) was added into vessel 1 of the gut model on day 14. One week later, on day 21, a second aliquot of C. difficile spores was added, and antibiotic instillation commenced. Model A (LHS) was exposed to moxifloxacin (43 mg/L, once daily, for 7 days) and Model B (RHS) was exposed to omadacycline (430 mg/L, once daily, for 7 days) commenced on day 21.
(§3) Bacterial populations in the gut model were monitored using selective agars to count viable bacterial colonies. Populations were monitored every other day for the first 2 weeks until the steady state was reached, and daily thereafter. C. difficile populations were monitored in all three vessels, and all other bacterial groups (total obligate anaerobes, total facultative anaerobes, lactose fermenting Enterobacteriaceae, Enterococci, total Clostridia, Lactobacilli, Bifidobacteria and B. fragilis group) were monitored in vessels 2 and 3 only. Vessel 3, which represents the distal colon, is of most physiological relevance in terms of propensity to induce CDI. C. difficile total viable counts and spores counts were monitored using viable counting and a differential alcohol shock viable count on selective agars. From day 14 onwards C. difficile cytotoxin was measured using a quantitative VERO cell cytotoxicity assay. Samples of 1 mL each were centrifuged at 16,000×g for 15 minutes, and the supernatants were removed. Six 1:10 serial dilutions (to 10^−6) of culture supernatants from the gut model were prepared. Twenty microliters of the appropriate dilution was added to VERO cell monolayers and a further 20 μL of C. sordellii antitoxin (diluted 1:10 in sterile distilled water) was placed in the corresponding antitoxin row. Monolayers were examined after 24 and 48 hours of incubation in 5% CO2, with a positive result indicated by the presence of cell rounding with concurrent neutralization of the effect by C. sordellii antitoxin. Cytotoxin titers (relative units, RU) were an arbitrary log10 scale, and the cytotoxin titer is reported in the highest dilution with >70% cell rounding, i.e. 10^0=1 RU, 10^−1=2 RU, 10^−2=3 RU. Samples were taken daily from day 21 onwards to determine antimicrobial concentrations in the gut model vessels by a bioassay. Concentrations of moxifloxacin were determined using Isosensitest agar with Escherichia coli as the indicator organism. Concentrations of omadacyline were determined using Wilkins Chalgren agar with Kocuria rhizophila as the indicator organism.

[5] = tested on: C. difficile PCR ribotype 027 strain 210; test: In vitro human gut model, C. difficile germination, proliferation and toxin production (Example 4); assay type: cell-based
Experimental: as §2, §3

[6] = tested on: C. difficile and gut microbiota; conditions: published gut model studies; cited from earlier work
[7] = tested on: C. difficile strain ATCC 43596; test: Hamster model of C. difficile-associated diarrhea, survival; assay type: in vivo
[8] = Wilkins-Chalgren broth, 48 hours anaerobic
[9] = Wilkins-Chalgren broth, 48 hours anaerobic, read-out: Broth Microdilution MIC90
[10] = Clostridioides difficile, ATCC43596, replicate plate A, read-out: MIC90 Plate A
[11] = Clostridioides difficile, ATCC43596, replicate plate B, read-out: MIC90 Plate B
[12] = Clostridioides difficile, ATCC43596, read-out: MIC90
[13] = vessels 2 and 3, once daily for 7 days
[14] = vessel 1, 43 mg/L once daily for 7 days
[15] = vessel 2 and vessel 3, 43 mg/L once daily for 7 days
[16] = oral 50 mg/kg/day for 5 days, N=10

Compound: CO/N=C(\C(=O)N[C@@H]1C(=O)N2C(C(=O)O)=C(COC(C)=O)CS[C@H]12)c1csc(N)n1 [Cefotaxime]
- MIC50 [1, 8]: 64000 µg/mL (≈ 141000 µM)

Compound: CCC[C@@H]1C[C@@H](C(=O)N[C@@H]([C@H]2O[C@H](SC)[C@H](O)[C@@H](O)[C@H]2O)[C@H](C)Cl)N(C)C1 [Clindamycin]
- MIC50 [1, 8]: 4000 µg/mL (≈ 9410 µM)
- MIC90 [1, 9]: > 16000 µg/mL
- MIC90 [2]: no activity
- MIC90 [2, 10]: > 32 µg/mL
- MIC90 [2, 11]: > 32 µg/mL

Compound: C[C@H]1c2cccc(O)c2C(=O)C2=C(O)[C@]3(O)C(=O)C(C(N)=O)=C(O)[C@@H](N(C)C)[C@@H]3[C@@H](O)[C@@H]21 [Doxycycline]
- MIC90 ([1]; read-out: MIC90 by broth dilution): 0.5 µg/mL (≈ 1.13 µM)
- MIC50 [1, 8]: 30 µg/mL (≈ 67.5 µM)
- MIC90 [1, 9]: 500 µg/mL (≈ 1130 µM)
- MIC90 ([3]; Clostridioides difficile): 1 µg/mL (≈ 2.25 µM)

Compound: C[C@@H](O)[C@H]1C(=O)N2C(C(=O)O)=C(SCCN=CN)C[C@H]12 [Imipenem]
- MIC50 [1, 8]: 4000 µg/mL (≈ 13400 µM)
- MIC90 [1, 9]: 8000 µg/mL (≈ 26700 µM)

Compound: Cc1ncc([N+](=O)[O-])n1CCO [Metronidazole]
- MIC50 [1, 8]: 120 µg/mL (≈ 701 µM)
- MIC90 [1, 9]: 500 µg/mL (≈ 2920 µM)
- Agar Microdilution Range (Minimum Inhibitory Concentration) ([3]; agar dilution): 0.06 to 0.5 mg/mL
- MIC90 [2, 12]: 0.06 µg/mL (≈ 0.351 µM)
- MIC90 [2, 10]: 0.06 µg/mL (≈ 0.351 µM)
- MIC90 [2, 11]: 0.06 µg/mL (≈ 0.351 µM)

Compound: COc1c(N2C[C@@H]3CCCN[C@@H]3C2)c(F)cc2c(=O)c(C(=O)O)cn(C3CC3)c12 [Moxifloxacin]
- time for all populations to return to pre-antibiotic levels following end of antibiotic exposure ([4]; all populations): ~1 week
- decline in B. fragilis group populations, vessel 2 ([4]; vessel 2, 43 mg/L once daily for 7 days): ~8 log10 cfu/mL
- decline in B. fragilis group populations, vessel 3 ([4]; vessel 3, 43 mg/L once daily for 7 days): ~4 log10 cfu/mL
- decline in Enterococcus spp. / Enterococci populations [4, 13]: ~4 log10 cfu/mL
- decline in Lactobacilli [4, 13]: ~3 log10 cfu/mL
- C. difficile toxin detection (VERO cell cytotoxicity assay) ([5]; all vessels): toxin detected in all three vessels
- day by which toxin was undetectable in all vessels ([5]; all vessels): ≤ 42 days
- signs of simulated CDI ([5]; once daily for 7 days, omadacycline 430 mg/L, moxifloxacin 43 mg/L): induced simulated CDI
- peak C. difficile cytotoxin titer, vessel 1 [5, 14]: 2 relative units
- peak C. difficile total viable counts, vessel 1 [5, 14]: ~4.5 log10 cfu/mL
- peak C. difficile cytotoxin titer, vessel 2 and vessel 3 [5, 15]: 3 relative units
- peak C. difficile total viable counts, vessel 2 and vessel 3 [5, 15]: ~6 log10 cfu/mL

Compound: CN(C)c1cc(NC(=O)CNC(C)(C)C)c(O)c2c1C[C@H]1C[C@H]3[C@H](N(C)C)C(O)=C(C(N)=O)C(=O)[C@@]3(O)C(O)=C1C2=O [Tigecycline]
- MIC90 ([2]; Clostridioides difficile, ATCC43596): 0.06 µg/mL (≈ 0.102 µM)
- MIC90 ([2]; Clostridioides difficile, ATCC43596, read-out: MIC90 Plate A): 0.06 µg/mL (≈ 0.102 µM)
- MIC90 ([2]; Clostridioides difficile, ATCC43596, read-out: MIC90 Plate B): 0.06 µg/mL (≈ 0.102 µM)
- induction of simulated CDI (C. difficile germination and toxin production) in the gut model [6]: do not promote C. difficile germination and toxin production; also recorded: have not induced simulated CDI in the gut model

Compound: CN[C@H](CC(C)C)C(=O)N[C@H]1C(=O)N[C@@H](CC(N)=O)C(=O)N[C@H]2C(=O)N[C@H]3C(=O)N[C@H](C(=O)N[C@H](C(=O)O)c4cc(O)cc(O)c4-c4cc3ccc4O)[C@H](O)c3ccc(c(Cl)c3)Oc3cc2cc(c3O[C@@H]2O[C@H](CO)[C@@H](O)[C@H](O)[C@H]2O[C@H]2C[C@](C)(N)[C@H](O)[C@H](C)O2)Oc2ccc(cc2Cl)[C@H]1O [Vancomycin]
- MIC90 [2, 12]: 0.06 µg/mL (≈ 0.0414 µM)
- MIC90 [2, 10]: 0.06 µg/mL (≈ 0.0414 µM)
- MIC90 [2, 11]: 0.06 µg/mL (≈ 0.0414 µM)
- Median Survival ([7]; hamster, in vivo): 2 days
- percent survival at day 2 post infection ([7]; hamster, in vivo): 40%
- percent survival by day 11 [7, 16]: 30%
- survival by day 14 [7, 16]: all animals succumbed to the infection

Compound: amoxicillin clavulanate
- Broth Microdilution MIC50 [1, 8]: 250 µg/mL
- Broth Microdilution MIC90 [1, 8]: 500 µg/mL
- Broth Microdilution Range (Minimum Inhibitory Concentration) [1, 8]: 0.12-0.5
- Agar Microdilution MIC50 ([3]; agar dilution): 50 µg/mL
- Agar Microdilution MIC90 ([3]; agar dilution): 1000 µg/mL
- Agar Microdilution Range (Minimum Inhibitory Concentration) ([3]; agar dilution): 0.25-1

Compound: piperacillin-tazobactam
- induction of simulated CDI (C. difficile germination and toxin production) in the gut model [6]: do not promote C. difficile germination and toxin production; also recorded: have not induced simulated CDI in the gut model
